Laboratory results reported in the supplement of paper PMC10307832.

Columns and labels:
Test in all cases: relative viability (nuclei count vs DMSO), 5 days (fraction); higher = more cells survive
FH535 + Tozasertib = compound: CC1=C(C=CC(=C1)[N+](=O)[O-])NS(=O)(=O)C2=C(C=CC(=C2)Cl)Cl [FH535] + Cc1cc(Nc2cc(N3CCN(C)CC3)nc(Sc3ccc(NC(=O)C4CC4)cc3)n2)n[nH]1 [Tozasertib] (partner 0.1 µM)
Procedure, shortened: (§1)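 Relative viability was taken as the ratio of nuclei in treated wells to nuclei in vehicle wells. Lung cancer cell lines in 1536-well plates received compounds by pin tool one day after seeding, either one drug alone or a fixed anchor-drug dose plus five library-drug doses (not always all listed) in √10 steps. Nuclei were counted on 4× images after 5 days of treatment, and values are medians of duplicate plates.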

FH535 + Olaparib = compound: CC1=C(C=CC(=C1)[N+](=O)[O-])NS(=O)(=O)C2=C(C=CC(=C2)Cl)Cl [FH535] + O=C(c1cc(Cc2n[nH]c(=O)c3ccccc23)ccc1F)N1CCN(C(=O)C2CC2)CC1 [Olaparib] (partner 8 µM)
Procedure, shortened: as §1

FH535 + Decitabine = compound: CC1=C(C=CC(=C1)[N+](=O)[O-])NS(=O)(=O)C2=C(C=CC(=C2)Cl)Cl [FH535] + Nc1ncn([C@H]2C[C@H](O)[C@@H](CO)O2)c(=O)n1 [Decitabine] (partner 2 µM)
Procedure, shortened: as §1

FH535 + Pemetrexed = compound: CC1=C(C=CC(=C1)[N+](=O)[O-])NS(=O)(=O)C2=C(C=CC(=C2)Cl)Cl [FH535] + Nc1nc2[nH]cc(CCc3ccc(C(=O)N[C@@H](CCC(=O)O)C(=O)O)cc3)c2c(=O)[nH]1 [Pemetrexed] (partner 0.2 µM)
Procedure, shortened: as §1

FH535 + Palbociclib = compound: CC1=C(C=CC(=C1)[N+](=O)[O-])NS(=O)(=O)C2=C(C=CC(=C2)Cl)Cl [FH535] + CC(=O)c1c(C)c2cnc(Nc3ccc(N4CCNCC4)cn3)nc2n(C2CCCC2)c1=O [Palbociclib] (partner 0.5 µM)
Procedure, shortened: as §1

FH535 + OSI-027 = compound: CC1=C(C=CC(=C1)[N+](=O)[O-])NS(=O)(=O)C2=C(C=CC(=C2)Cl)Cl [FH535] + COc1cccc2cc(-c3nc([C@H]4CC[C@H](C(=O)O)CC4)n4ncnc(N)c34)[nH]c12 [OSI-027] (partner 0.5 µM)
Procedure, shortened: as §1

FH535 + Vorinostat = compound: CC1=C(C=CC(=C1)[N+](=O)[O-])NS(=O)(=O)C2=C(C=CC(=C2)Cl)Cl [FH535] + O=C(CCCCCCC(=O)Nc1ccccc1)NO [Vorinostat] (partner 1 µM)
Procedure, shortened: as §1

FH535 + AZD7762 = compound: CC1=C(C=CC(=C1)[N+](=O)[O-])NS(=O)(=O)C2=C(C=CC(=C2)Cl)Cl [FH535] + NC(=O)Nc1cc(-c2cccc(F)c2)sc1C(=O)N[C@H]1CCCNC1 [AZD7762] (partner 0.2 µM)
Procedure, shortened: as §1

FH535 + Trametinib = compound: CC1=C(C=CC(=C1)[N+](=O)[O-])NS(=O)(=O)C2=C(C=CC(=C2)Cl)Cl [FH535] + CC(=O)Nc1cccc(-n2c(=O)n(C3CC3)c(=O)c3c(Nc4ccc(I)cc4F)n(C)c(=O)c(C)c32)c1 [Trametinib] (partner 0.02 µM)
Procedure, shortened: as §1

FH535 = compound: CC1=C(C=CC(=C1)[N+](=O)[O-])NS(=O)(=O)C2=C(C=CC(=C2)Cl)Cl [FH535]
Procedure, shortened: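 On vehicle-anchored 1536-well plates, lung cancer cell lines held overnight at 37 °C were pinned with five library-drug doses (not always all listed) spaced by √10. With no medium change over 5 days, they were then fixed, permeabilised and Hoechst-stained in one step and imaged at 4×. MetaXpress counted nuclei, and viability is the median across plates of treated-well over vehicle-well nuclei. Acceptance needed control CV below 25% and at least one doubling.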

FH535 + Luminespib = compound: CC1=C(C=CC(=C1)[N+](=O)[O-])NS(=O)(=O)C2=C(C=CC(=C2)Cl)Cl [FH535] + CCNC(=O)c1noc(-c2cc(C(C)C)c(O)cc2O)c1-c1ccc(CN2CCOCC2)cc1 [Luminespib] (partner 0.01 µM)
Procedure, shortened: as §1

FH535 + Phenformin = compound: CC1=C(C=CC(=C1)[N+](=O)[O-])NS(=O)(=O)C2=C(C=CC(=C2)Cl)Cl [FH535] + N=C(N)NC(=N)NCCc1ccccc1 [Phenformin] (partner 250 µM)
Procedure, shortened: as §1

FH535 + Foretinib = compound: CC1=C(C=CC(=C1)[N+](=O)[O-])NS(=O)(=O)C2=C(C=CC(=C2)Cl)Cl [FH535] + COc1cc2c(Oc3ccc(NC(=O)C4(C(=O)Nc5ccc(F)cc5)CC4)cc3F)ccnc2cc1OCCCN1CCOCC1 [Foretinib] (partner 0.25 µM)
Procedure, shortened: as §1

FH535 + Dasatinib = compound: CC1=C(C=CC(=C1)[N+](=O)[O-])NS(=O)(=O)C2=C(C=CC(=C2)Cl)Cl [FH535] + Cc1nc(Nc2ncc(C(=O)Nc3c(C)cccc3Cl)s2)cc(N2CCN(CCO)CC2)n1 [Dasatinib] (partner 0.075 µM)
Procedure, shortened: as §1

With NCI-H1648 the relative viability (FH535 + Tozasertib; first compound 0.04 µM) was 0.397, the relative viability (FH535 + Tozasertib; first compound 0.4 µM) was 0.603 and the relative viability (FH535 + Tozasertib; first compound 1.265 µM) was 0.281. For the same cell line, the relative viability (FH535 + Olaparib; first compound 0.1265 µM) was 0.888, the relative viability (FH535 + Olaparib; first compound 0.4 µM) was 1.08 and the relative viability (FH535 + Olaparib; first compound 1.265 µM) was 0.383. The relative viability (FH535 + Decitabine; first compound 0.1265 µM) was 0.585, the relative viability (FH535 + Decitabine; first compound 0.4 µM) was 0.478 and the relative viability (FH535 + Decitabine; first compound 1.265 µM) was 0.398. The relative viability (FH535 + Pemetrexed; first compound 0.1265 µM) was 0.655, the relative viability (FH535 + Pemetrexed; first compound 0.4 µM) was 0.532 and the relative viability (FH535 + Pemetrexed; first compound 1.265 µM) was 0.635. For the same cell line, the relative viability (FH535 + Palbociclib; first compound 0.1265 µM) was 0.219, the relative viability (FH535 + Palbociclib; first compound 0.4 µM) was 0.273 and the relative viability (FH535 + Palbociclib; first compound 1.265 µM) was 0.225. It also gave a relative viability (FH535 + OSI-027; first compound 0.04 µM) of 0.243, a relative viability (FH535 + OSI-027; first compound 0.4 µM) of 0.254 and a relative viability (FH535 + OSI-027; first compound 1.265 µM) of 0.243. It also gave a relative viability (FH535 + Vorinostat; first compound 0.1265 µM) of 0.595, a relative viability (FH535 + Vorinostat; first compound 0.4 µM) of 0.709 and a relative viability (FH535 + Vorinostat; first compound 1.265 µM) of 0.473. It also gave a relative viability (FH535 + AZD7762; first compound 0.1265 µM) of 0.654, a relative viability (FH535 + AZD7762; first compound 0.4 µM) of 0.612 and a relative viability (FH535 + AZD7762; first compound 1.265 µM) of 0.625. The relative viability (FH535 + Trametinib; first compound 0.1265 µM) was 0.441, the relative viability (FH535 + Trametinib; first compound 0.4 µM) was 0.544 and the relative viability (FH535 + Trametinib; first compound 1.265 µM) was 0.352. The relative viability (FH535; 0.04 µM) was 0.645, the relative viability (FH535; 0.1265 µM) was 0.828 and the relative viability (FH535; 0.4 µM) was 0.837. The relative viability (FH535; 1.265 µM) was 0.641.

Work on NCI-H2342 yielded a relative viability (FH535 + Tozasertib; first compound 0.04 µM) of 0.541, a relative viability (FH535 + Tozasertib; first compound 0.1265 µM) of 0.564 and a relative viability (FH535 + Tozasertib; first compound 0.4 µM) of 0.445. For the same cell line, the relative viability (FH535 + Tozasertib; first compound 1.265 µM) was 0.454, the relative viability (FH535 + Olaparib; first compound 0.04 µM) was 0.471 and the relative viability (FH535 + Olaparib; first compound 0.1265 µM) was 0.487. It also gave a relative viability (FH535 + Olaparib; first compound 0.4 µM) of 0.434, a relative viability (FH535 + Olaparib; first compound 1.265 µM) of 0.363 and a relative viability (FH535 + Luminespib; first compound 0.04 µM) of 0.738. It also gave a relative viability (FH535 + Luminespib; first compound 0.1265 µM) of 0.713, a relative viability (FH535 + Luminespib; first compound 0.4 µM) of 0.705 and a relative viability (FH535 + Luminespib; first compound 1.265 µM) of 0.6. For the same cell line, the relative viability (FH535 + Decitabine; first compound 0.04 µM) was 0.706, the relative viability (FH535 + Decitabine; first compound 0.1265 µM) was 0.632 and the relative viability (FH535 + Decitabine; first compound 0.4 µM) was 0.736. For the same cell line, the relative viability (FH535 + Decitabine; first compound 1.265 µM) was 0.568, the relative viability (FH535 + Phenformin; first compound 0.04 µM) was 0.559 and the relative viability (FH535 + Phenformin; first compound 0.1265 µM) was 0.602. It also gave a relative viability (FH535 + Phenformin; first compound 0.4 µM) of 0.611, a relative viability (FH535 + Phenformin; first compound 1.265 µM) of 0.437 and a relative viability (FH535 + Pemetrexed; first compound 0.04 µM) of 0.772. For the same cell line, the relative viability (FH535 + Pemetrexed; first compound 0.1265 µM) was 0.748, the relative viability (FH535 + Pemetrexed; first compound 0.4 µM) was 0.812 and the relative viability (FH535 + Pemetrexed; first compound 1.265 µM) was 0.634. For the same cell line, the relative viability (FH535 + Palbociclib; first compound 0.04 µM) was 0.524, the relative viability (FH535 + Palbociclib; first compound 0.1265 µM) was 0.533 and the relative viability (FH535 + Palbociclib; first compound 0.4 µM) was 0.567. The relative viability (FH535 + Palbociclib; first compound 1.265 µM) was 0.581, the relative viability (FH535 + OSI-027; first compound 0.04 µM) was 0.516 and the relative viability (FH535 + OSI-027; first compound 0.1265 µM) was 0.593. The relative viability (FH535 + OSI-027; first compound 0.4 µM) was 0.641, the relative viability (FH535 + OSI-027; first compound 1.265 µM) was 0.567 and the relative viability (FH535 + Vorinostat; first compound 0.04 µM) was 0.674. The relative viability (FH535 + Vorinostat; first compound 0.1265 µM) was 0.725, the relative viability (FH535 + Vorinostat; first compound 0.4 µM) was 0.87 and the relative viability (FH535 + Vorinostat; first compound 1.265 µM) was 0.721. For the same cell line, the relative viability (FH535 + AZD7762; first compound 0.04 µM) was 0.491, the relative viability (FH535 + AZD7762; first compound 0.1265 µM) was 0.482 and the relative viability (FH535 + AZD7762; first compound 0.4 µM) was 0.482. For the same cell line, the relative viability (FH535 + AZD7762; first compound 1.265 µM) was 0.354, the relative viability (FH535 + Foretinib; first compound 0.04 µM) was 1.19 and the relative viability (FH535 + Foretinib; first compound 0.1265 µM) was 1.09. For the same cell line, the relative viability (FH535 + Foretinib; first compound 0.4 µM) was 1.04, the relative viability (FH535 + Foretinib; first compound 1.265 µM) was 0.792 and the relative viability (FH535 + Dasatinib; first compound 0.04 µM) was 0.305. For the same cell line, the relative viability (FH535 + Dasatinib; first compound 0.1265 µM) was 0.339, the relative viability (FH535 + Dasatinib; first compound 0.4 µM) was 0.281 and the relative viability (FH535 + Dasatinib; first compound 1.265 µM) was 0.297. It also gave a relative viability (FH535 + Trametinib; first compound 0.04 µM) of 0.794, a relative viability (FH535 + Trametinib; first compound 0.1265 µM) of 0.823 and a relative viability (FH535 + Trametinib; first compound 0.4 µM) of 0.9. The relative viability (FH535 + Trametinib; first compound 1.265 µM) was 0.842, the relative viability (FH535; 0.04 µM) was 0.96 and the relative viability (FH535; 0.1265 µM) was 0.964. The relative viability (FH535; 0.4 µM) was 1.01 and the relative viability (FH535; 1.265 µM) was 0.76.
